Test results from paper PMC10643470, “Knockout or inhibition of USP30 protects dopaminergic neurons in a Parkinson’s disease mouse model” (Nature Communications, 2023).
“And” between values parts separate entries of the source, which are not always exact repeats. Equal values may be shown once. Read-outs that look alike come from different tables or passages of the source.

Key:
[1] = molecular target: USP28 (Homo sapiens, UniProt Q96RU2); assay: DUB/cathepsin selectivity biochemical assay
[2] = test system: TOM20-ubiquitylation in control (AHN) iPSC-derived dopaminergic neurons; assay: TOM20-ubiquitylation in control iPSC-derived dopaminergic neurons; type: cell-based, human; conditions: no exogenous stimuli
Description: Donor-derived DopaNeuron lines were generated from source material provided by the Parkinson’s Progression Markers Initiative (PPMI) through The Michael J. Fox Foundation. Human iPS cells-derived DopaNeurons were purchased from Fujifilm/Cellular Dynamics. Apparently healthy normal (AHN) (catalog # R1088) or alpha-synuclein A53T mutated (A53T) (catalog # R1109) iPSC-derived dopaminergic neurons (dopaneurons) were thawed from liquid nitrogen. 400 000 viable (counted using a cell counter) dopaneurons […] were plated per well into 24 well plates on day 0 in complete maintenance medium (CMM).
A half-medium change was performed on the cells on Day 3 with CMM. On Day 5 cells were half-medium changed with complete brainphys medium. […] Cells were given half medium changes with or without compounds (depending on whether treatments with compound had started) every 2-3 days.

[3] = molecular target: T1, USP34 CORE (Homo sapiens, UniProt Q70CQ2); assay: DUB/cathepsin selectivity biochemical assay
T1 construct: USP34 CORE

[4] = molecular target: ATXN3L (Homo sapiens, UniProt Q9H3M9); assay: DUB/cathepsin selectivity biochemical assay
[5] = test system: AAV-A53T-SNCA PD mouse model; assay: Iba1/GFAP immunostaining in SNpc, AAV-A53T-SNCA mouse model (compound study); type: in vivo; set-up: key to Figure S7a immunostaining, Left / Figure S7a immunostaining, Right: % stained area = stained area / region area × 100
Description: (§1) For the compound study, the fixed, cryoprotected and frozen midbrain samples were sectioned as coronal sections at 100 µm intervals through SNpc and ventral tegmental area (VTA) and mounted on glass slides. Sectioning was started at −2.6 mm from bregma and continued to −3.7 mm from bregma in the AP axis (coordinates based on Franklin & Paxinos: The Mouse Brain in Stereotaxic Coordinates). For the immunostaining, the sections were stained with anti-TH following permeabilization. The stained sections were scanned with the Olympus VS120 slide scanner and analyzed with a VIS-Visiopharm Integrator System (Visiopharm, Denmark) by a blinded data analyst. All cells of interest with visible nuclei were labeled manually and counted using an APP (Analysis Protocol Package), scaled by section thickness and sectioning interval to estimate the total cell population in the SNpc. For immunostaining of Ser129 αSyn phosphorylation, TSA amplification was used with primary antibody ab51253 (Abcam). Blinded analysis was used, and positive cells per area were determined. For dual IF IHC of Iba1 (WAKO) and GFAP (ab4674 – Abcam), the stained sections were scanned and analyzed by a blinded data analyst. Analysis determines the percentage of positive staining area [%area = (stained area/region area) * (100)]. To calculate % of stained area, the same threshold value was applied to all sections with the same antibody staining. All pixels above the threshold value were considered positive. All striatal densitometry and neuronal counting data for both KO and inhibitor studies were obtained by an investigator blinded to genotype and treatment.

[6] = molecular target: USP16 (Homo sapiens, UniProt Q9Y5T5); assay: DUB/cathepsin selectivity biochemical assay
[7] = molecular target: T2, VCPIP FL (Homo sapiens, UniProt Q96JH7); assay: DUB/cathepsin selectivity biochemical assay
T2 construct: VCPIP FL

[8] = molecular target: T3, SENP2 CD (Homo sapiens, UniProt Q9HC62); assay: DUB/cathepsin selectivity biochemical assay
T3 construct: SENP2 CD

[9] = molecular target: USP9x (Homo sapiens, UniProt Q93008); assay: DUB/cathepsin selectivity biochemical assay
Sequence of USP9x (Q93008 whole entry, species assumed): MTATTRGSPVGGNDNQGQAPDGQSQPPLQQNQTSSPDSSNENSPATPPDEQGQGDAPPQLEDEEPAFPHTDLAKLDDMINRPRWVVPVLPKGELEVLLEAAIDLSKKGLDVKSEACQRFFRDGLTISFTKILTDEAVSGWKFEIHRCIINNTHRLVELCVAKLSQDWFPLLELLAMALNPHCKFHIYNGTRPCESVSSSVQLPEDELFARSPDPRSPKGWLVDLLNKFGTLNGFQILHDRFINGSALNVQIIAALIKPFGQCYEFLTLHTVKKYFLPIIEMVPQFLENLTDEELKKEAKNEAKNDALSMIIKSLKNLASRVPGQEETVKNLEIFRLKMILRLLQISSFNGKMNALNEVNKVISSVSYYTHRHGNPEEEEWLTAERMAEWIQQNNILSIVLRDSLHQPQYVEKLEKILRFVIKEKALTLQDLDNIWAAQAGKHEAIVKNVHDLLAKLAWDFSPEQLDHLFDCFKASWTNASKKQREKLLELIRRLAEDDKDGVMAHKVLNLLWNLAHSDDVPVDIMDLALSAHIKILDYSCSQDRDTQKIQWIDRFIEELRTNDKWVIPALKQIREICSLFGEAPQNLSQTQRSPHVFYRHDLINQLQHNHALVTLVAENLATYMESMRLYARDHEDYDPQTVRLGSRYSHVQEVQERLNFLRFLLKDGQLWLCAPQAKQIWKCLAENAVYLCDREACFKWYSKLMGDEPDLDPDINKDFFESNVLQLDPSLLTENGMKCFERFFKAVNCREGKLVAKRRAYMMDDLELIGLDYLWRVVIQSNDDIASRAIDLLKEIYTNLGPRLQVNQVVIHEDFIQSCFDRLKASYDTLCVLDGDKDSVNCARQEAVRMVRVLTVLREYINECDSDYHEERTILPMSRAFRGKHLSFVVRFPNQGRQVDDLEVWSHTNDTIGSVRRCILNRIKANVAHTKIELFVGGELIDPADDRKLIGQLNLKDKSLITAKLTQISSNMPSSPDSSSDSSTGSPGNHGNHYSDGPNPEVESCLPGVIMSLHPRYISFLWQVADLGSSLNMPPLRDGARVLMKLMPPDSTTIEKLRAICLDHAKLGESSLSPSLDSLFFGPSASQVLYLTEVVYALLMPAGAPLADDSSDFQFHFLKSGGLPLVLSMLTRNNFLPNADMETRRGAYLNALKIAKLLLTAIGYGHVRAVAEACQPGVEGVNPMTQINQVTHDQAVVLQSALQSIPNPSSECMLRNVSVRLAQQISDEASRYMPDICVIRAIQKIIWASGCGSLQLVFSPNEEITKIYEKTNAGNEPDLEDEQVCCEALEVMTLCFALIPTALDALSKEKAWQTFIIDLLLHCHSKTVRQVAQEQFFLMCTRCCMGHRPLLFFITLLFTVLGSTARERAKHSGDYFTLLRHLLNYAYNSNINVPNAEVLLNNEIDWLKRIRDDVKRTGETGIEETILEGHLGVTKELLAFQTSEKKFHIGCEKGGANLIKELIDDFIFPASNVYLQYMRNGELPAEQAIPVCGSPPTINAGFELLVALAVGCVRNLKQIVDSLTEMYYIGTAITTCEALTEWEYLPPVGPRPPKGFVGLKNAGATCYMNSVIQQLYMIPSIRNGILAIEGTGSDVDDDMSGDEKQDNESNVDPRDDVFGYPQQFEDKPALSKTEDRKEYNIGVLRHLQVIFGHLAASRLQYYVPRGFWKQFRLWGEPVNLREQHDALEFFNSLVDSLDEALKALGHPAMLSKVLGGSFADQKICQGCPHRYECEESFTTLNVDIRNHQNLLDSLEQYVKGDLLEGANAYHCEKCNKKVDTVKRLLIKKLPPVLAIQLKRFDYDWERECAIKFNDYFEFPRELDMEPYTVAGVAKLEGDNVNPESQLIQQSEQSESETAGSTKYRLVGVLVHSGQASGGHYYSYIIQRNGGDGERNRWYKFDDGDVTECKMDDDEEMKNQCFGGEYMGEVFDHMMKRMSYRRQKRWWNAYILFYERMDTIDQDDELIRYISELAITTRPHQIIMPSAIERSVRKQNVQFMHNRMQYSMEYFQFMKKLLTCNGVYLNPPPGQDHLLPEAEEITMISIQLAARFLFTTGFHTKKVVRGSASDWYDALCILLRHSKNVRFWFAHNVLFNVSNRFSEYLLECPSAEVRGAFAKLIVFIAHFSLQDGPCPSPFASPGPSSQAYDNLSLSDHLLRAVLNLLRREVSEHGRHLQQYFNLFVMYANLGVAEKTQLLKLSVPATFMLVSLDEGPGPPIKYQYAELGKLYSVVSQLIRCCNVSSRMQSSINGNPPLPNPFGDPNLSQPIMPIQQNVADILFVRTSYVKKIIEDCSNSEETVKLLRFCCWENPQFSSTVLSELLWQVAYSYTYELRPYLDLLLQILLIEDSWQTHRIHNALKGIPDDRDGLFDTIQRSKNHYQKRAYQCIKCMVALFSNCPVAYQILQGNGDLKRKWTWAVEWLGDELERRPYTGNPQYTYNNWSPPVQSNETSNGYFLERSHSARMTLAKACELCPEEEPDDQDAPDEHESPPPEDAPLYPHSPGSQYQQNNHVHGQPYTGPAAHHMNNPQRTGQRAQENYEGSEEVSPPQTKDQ

[10] = test system: AAV-A53T-SNCA PD mouse model; assay: Total αSyn and phospho-S129 αSyn immunostaining in SNpc, AAV-A53T-SNCA mouse model (compound study); type: in vivo
Description: as §1

[11] = molecular target: OTUD6B (Homo sapiens, UniProt Q8N6M0); assay: DUB/cathepsin selectivity biochemical assay
[12] = molecular target: MINDY2 (Homo sapiens, UniProt Q8NBR6); assay: DUB/cathepsin selectivity biochemical assay
[13] = molecular target: USP22 (Homo sapiens, UniProt Q9UPT9); assay: DUB/cathepsin selectivity biochemical assay
Sequence of USP22 (Q9UPT9 whole entry, species assumed): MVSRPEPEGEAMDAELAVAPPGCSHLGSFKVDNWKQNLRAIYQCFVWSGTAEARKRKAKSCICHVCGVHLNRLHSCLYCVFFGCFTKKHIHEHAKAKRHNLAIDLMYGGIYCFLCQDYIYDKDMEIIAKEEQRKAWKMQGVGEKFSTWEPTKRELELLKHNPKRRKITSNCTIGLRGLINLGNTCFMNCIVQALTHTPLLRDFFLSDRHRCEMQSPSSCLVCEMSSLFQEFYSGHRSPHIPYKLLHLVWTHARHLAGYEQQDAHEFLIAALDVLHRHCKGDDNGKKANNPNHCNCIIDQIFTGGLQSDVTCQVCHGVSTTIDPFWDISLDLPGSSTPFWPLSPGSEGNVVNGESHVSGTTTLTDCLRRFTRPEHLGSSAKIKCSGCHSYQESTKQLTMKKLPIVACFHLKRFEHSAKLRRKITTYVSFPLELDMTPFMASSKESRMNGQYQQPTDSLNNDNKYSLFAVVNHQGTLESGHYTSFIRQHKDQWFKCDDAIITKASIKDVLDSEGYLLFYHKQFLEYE

[14] = Mouse blood and prefrontal cortex microdialysis pharmacokinetics (Kpu,u); type: in vivo; conditions: single 10 mg/kg oral dose, at the 60-min time point
Description: Mouse Kpu,u estimates were calculated from blood and prefrontal cortex compound profiles following oral dosing of 10 or 30 mg/kg by gavage, with sequential blood sampling from the jugular vein and sequential brain interstitial fluid sampling via a microdialysis probe in the prefrontal cortex.

[15] = molecular target: USP15 (Homo sapiens, UniProt Q9Y4E8); assay: DUB/cathepsin selectivity biochemical assay
Sequence of USP15 (Q9Y4E8 whole entry, species assumed): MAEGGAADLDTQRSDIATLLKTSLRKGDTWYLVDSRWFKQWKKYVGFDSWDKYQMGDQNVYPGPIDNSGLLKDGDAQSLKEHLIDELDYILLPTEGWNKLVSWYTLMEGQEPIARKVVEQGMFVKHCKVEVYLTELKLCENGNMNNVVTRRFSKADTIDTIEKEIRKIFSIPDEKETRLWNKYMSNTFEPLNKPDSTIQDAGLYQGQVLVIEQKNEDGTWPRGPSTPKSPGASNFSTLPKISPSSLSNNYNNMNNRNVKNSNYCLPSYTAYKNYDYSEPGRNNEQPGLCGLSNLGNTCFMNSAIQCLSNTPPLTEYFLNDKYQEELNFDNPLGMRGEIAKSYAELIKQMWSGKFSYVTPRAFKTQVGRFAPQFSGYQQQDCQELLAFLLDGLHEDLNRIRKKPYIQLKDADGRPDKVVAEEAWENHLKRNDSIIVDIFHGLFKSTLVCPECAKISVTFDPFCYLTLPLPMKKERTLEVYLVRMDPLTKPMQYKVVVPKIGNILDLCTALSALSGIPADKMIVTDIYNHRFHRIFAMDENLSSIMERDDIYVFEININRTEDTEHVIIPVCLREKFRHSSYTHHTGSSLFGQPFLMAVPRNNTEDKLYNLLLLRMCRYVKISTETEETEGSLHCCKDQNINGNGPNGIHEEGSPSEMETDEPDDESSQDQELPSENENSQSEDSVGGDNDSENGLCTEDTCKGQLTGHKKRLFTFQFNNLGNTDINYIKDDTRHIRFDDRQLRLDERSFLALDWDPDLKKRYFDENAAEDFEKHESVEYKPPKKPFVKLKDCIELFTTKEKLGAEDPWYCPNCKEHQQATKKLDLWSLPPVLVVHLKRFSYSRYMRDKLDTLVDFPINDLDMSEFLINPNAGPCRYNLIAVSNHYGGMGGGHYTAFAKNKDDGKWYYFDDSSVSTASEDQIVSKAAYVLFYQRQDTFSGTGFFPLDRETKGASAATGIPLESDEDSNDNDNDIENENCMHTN

[16] = molecular target: OTUB2 (Homo sapiens, UniProt Q96DC9); assay: DUB/cathepsin selectivity biochemical assay
[17] = Mouse pharmacokinetics (IV clearance, oral bioavailability); type: in vivo; conditions: blood
[18] = molecular target: USP14 (Homo sapiens, UniProt P54578); assay: DUB/cathepsin selectivity biochemical assay
[19] = molecular target: T4, USP21 CD (Homo sapiens, UniProt Q9UK80); assay: DUB/cathepsin selectivity biochemical assay
T4 construct: USP21 CD

[20] = molecular target: USP20 (Homo sapiens, UniProt Q9Y2K6); assay: DUB/cathepsin selectivity biochemical assay
[21] = molecular target: USP47 (Homo sapiens, UniProt Q96K76); assay: DUB/cathepsin selectivity biochemical assay
[22] = molecular target: USP6 (Homo sapiens, UniProt P35125); assay: DUB/cathepsin selectivity biochemical assay
[23] = molecular target: OTUB1/UBCH5B (Homo sapiens, UniProt Q96FW1); assay: DUB/cathepsin selectivity biochemical assay
Sequence of OTUB1/UBCH5B (Q96FW1 whole entry, species assumed): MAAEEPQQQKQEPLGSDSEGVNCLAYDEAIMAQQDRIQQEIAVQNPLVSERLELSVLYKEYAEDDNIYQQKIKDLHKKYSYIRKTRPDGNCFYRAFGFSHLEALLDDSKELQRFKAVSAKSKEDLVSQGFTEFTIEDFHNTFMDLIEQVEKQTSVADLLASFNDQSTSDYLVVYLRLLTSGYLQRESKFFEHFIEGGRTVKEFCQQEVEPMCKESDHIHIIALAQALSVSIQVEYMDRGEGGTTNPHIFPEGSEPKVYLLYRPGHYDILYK
Sequence of OTUB1/UBCH5B (P62837 whole entry partner, species assumed): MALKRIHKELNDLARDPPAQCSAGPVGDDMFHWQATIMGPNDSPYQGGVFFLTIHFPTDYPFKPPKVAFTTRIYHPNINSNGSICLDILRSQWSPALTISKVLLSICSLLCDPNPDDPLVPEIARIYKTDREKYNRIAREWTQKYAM

[24] = molecular target: USP2 (Homo sapiens, UniProt O75604); assay: DUB/cathepsin selectivity biochemical assay
Sequence of USP2 (O75604 whole entry, species assumed): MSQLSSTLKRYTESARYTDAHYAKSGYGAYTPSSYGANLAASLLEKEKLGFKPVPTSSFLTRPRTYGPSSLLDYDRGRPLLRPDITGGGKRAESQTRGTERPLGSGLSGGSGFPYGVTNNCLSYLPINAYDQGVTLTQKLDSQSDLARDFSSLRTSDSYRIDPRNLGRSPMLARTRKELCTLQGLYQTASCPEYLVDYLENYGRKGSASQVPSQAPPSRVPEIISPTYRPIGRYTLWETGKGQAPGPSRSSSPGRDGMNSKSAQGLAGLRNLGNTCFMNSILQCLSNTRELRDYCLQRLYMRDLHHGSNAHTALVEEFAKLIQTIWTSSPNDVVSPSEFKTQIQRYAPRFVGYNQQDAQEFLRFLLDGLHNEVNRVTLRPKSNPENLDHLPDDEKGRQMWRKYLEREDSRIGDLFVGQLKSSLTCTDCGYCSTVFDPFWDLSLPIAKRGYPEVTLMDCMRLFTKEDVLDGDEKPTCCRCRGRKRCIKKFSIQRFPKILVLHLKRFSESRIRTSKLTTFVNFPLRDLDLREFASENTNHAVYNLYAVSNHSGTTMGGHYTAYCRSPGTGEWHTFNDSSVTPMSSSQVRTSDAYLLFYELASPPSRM

[25] = molecular target: USP19 (Homo sapiens, UniProt O94966); assay: DUB/cathepsin selectivity biochemical assay
[26] = AAV-A53T + MTX115325 (50 mg/kg), Group 5, Left hemisphere, individual animal values (Animal ID in r3)
[27] = AAV-A53T + MTX115325 (50 mg/kg), Group 5, Right hemisphere, individual animal values (Animal ID in r3)

C[C@@H]1[C@H]2CCN(C(=O)c3ncc(-c4ccnc(C#N)c4)o3)[C@H]2CN1C#N [MTX115325]
IC50 [1]: 106 µM | TOM20-ubiquitylation ([2]; control background, 24 h, 1 µM): increased TOM20-ubiquitylation | TOM20-ubiquitylation ([2]; control neurons, 7 days at 10 nM, 100 nM or 1 µM): caused the upregulation of TOM20-ubiquitylation | IC50 [3]: > 300 µM | IC50 [4]: 173 µM | Total GFAP stained area ([5]; 50 mg/kg, SNpc): significantly decreased | Figure S7b immunostaining quantification, Left [5, 26]: 1.3107 and 1.822 and 1.54 and 1.4872 and 0.5058 and 0.5702 and 1.26 and 0.5434 and 3.27 and 0.3697 and 0.5693 and 0.3721 and 1.3682 | Figure S7b immunostaining quantification, Right [5, 27]: 5.052 and 9.289 and 2.625 and 1.026 and 0.413 and 0.7794 and 1.305 and 0.7197 and 2.306 and 0.4784 and 1.89 and 0.7362 and 2.027 | Figure S7a immunostaining, Left ([5]; Group 5: AAV-A53T + MTX115325 (50 mg/kg), Left side, individual animals): 7.176 and 11.087 and 12.7517 and 7.21 and 7.515 and 4.054 and 9.929 and 4.978 and 8.49 and 4.199 and 4.24 and 6.399 and 9.051 | Figure S7a immunostaining, Right ([5]; Group 5: AAV-A53T + MTX115325 (50 mg/kg), Right side, individual animals): 24.0437 and 23.3177 and 16.4732 and 6.609 and 8.915 and 4.627 and 11.7034 and 7.051 and 10.4594 and 5.626 and 7.142 and 6.872 and 11.3579 | IC50 [6]: 83.7 µM | IC50 [7]: > 300 µM | IC50 [8]: > 300 µM | IC50 [9]: > 300 µM | Phosphorylated S129-αSyn ([10]; 50 mg/kg, SNpc): significantly reduced | Figure S7c immunostaining quantification, Left [10, 26]: 0 (7×) and 0.04487 and 0.008105 and 0.007836 and 0.01908 and 0.009848 and 0.001515 and 0.003247 and 0.005828 | Figure S7d immunostaining quantification, Left [10, 26]: 0 (10×) and 1.603 and 0.7671 and 1.12 and 0.7902 | Figure S7c immunostaining quantification, Right [10, 27]: 0.007974 and 0.07707 and 0.1923 and 0.06947 and 0.001983 and 0 (5×) and 0.06633 and 0.1857 and 0.01165 and 0.002029 and 6.4046e-5 | Figure S7d immunostaining quantification, Right [10, 27]: 57.3627 and 99.9359 and 9.299 and 6.893 and 1.412 and 0 (4×) and 0.2913 and 18.3383 and 84.6359 and 0.2072 and 0.6527 | IC50 [11]: > 300 µM | IC50 [12]: > 300 µM | IC50 [13]: 147 µM | Prefrontal cortex free CMax [14]: 528 nM | IC50 [15]: > 300 µM | IC50 [16]: > 300 µM | bioavailability ([17]; 10 mg/kg oral gavage vs 2 mg/kg IV): 98% | clearance ([17]; IV 2 mg/kg): 19.7 mL/min/kg | IC50 [18]: > 300 µM | IC50 [19]: 60.7 µM | IC50 [20]: > 300 µM | IC50 [21]: 212 µM | IC50 [22]: 96.3 µM | IC50 [23]: > 300 µM | IC50 ([24]; Supplementary Fig. 6a, read-out: Selectivity vs DUBs (IC50), USP2): 24.9 µM | IC50 ([24]; USP2, read-out: IC50): 24.9 µM | IC50 [25]: 278 µM
